Source: publication PMC3004370, “PI3Kα Inhibitors That Inhibit Metastasis” (Oncotarget, 2010)

Legend:
[1] = biological target: T1, p110α (Homo sapiens, UniProt P42336); test: Biochemical PI3K inhibition assay, p110α; conditions: for IC50: 10 μM ATP, two hours
T1 construct: His-tag; made in house; host or cells: Sf9 insect cells (baculovirus)
Procedure: PIK3CD was generously provided by Novartis Pharmaceuticals. […] Sf9 cells were lysed in a buffer containing 50 mM sodium phosphate, pH 8.0, 400 mM NaCl, 5% glycerol, 1% Triton X-100, 10 mM 2-mercaptoethanol, 1 mM orthovanadate, 10 mM imidazole, and sonicated on ice for 1 minute. Proteins were purified by adding Ni-NTA Superflow beads (Qiagen, Valencia, CA, USA) to the lysate and subsequent rolling for 30 min at 4°C. Beads were washed twice with 50 mM phosphate buffer, pH 8.0, 0.5 M NaCl, 50 mM Imidazole, 2 mM DTT and eluted in the same buffer but with 200 mM imidazole. Purified PI3K's were mixed 1:1 with glycerol and stored at -20°C.
J-series inhibitors were dissolved, serial diluted in DMSO and deposited into 96 well plates at a final DMSO concentration of 1%. We used a novel assay to determine their potency and selectivity. […] Reactions were timed after the addition of 10 μM ATP with 40 μCi/ml γ-32P-ATP (PerkinElmer, Waltham, MA, USA) and 2 mM MgCl2 (all final concentrations). The reactions were terminated after two hours by the addition of 2 N HCl and the lipids extracted with 1:1 MetOH/Chloroform. Radio-labeled phosphatidyl-inositol-3-phosphate in the extracted organic fraction was quantified after the addition of Microscint O (PerkinElmer) using a TopCount 96 well plate scintillation counter (PerkinElmer). IC50 concentrations and inhibition curves were calculated using Prism 5 (GraphPad Software, La Jolla, CA).

[2] = biological target: T2, p110β (Homo sapiens, UniProt P42338); test: Biochemical PI3K inhibition assay, p110β; conditions: 10 μM ATP, two hours
T2 construct: His-tag; made in house; host or cells: Sf9 insect cells (baculovirus)
T2 sequence (P42338 whole entry): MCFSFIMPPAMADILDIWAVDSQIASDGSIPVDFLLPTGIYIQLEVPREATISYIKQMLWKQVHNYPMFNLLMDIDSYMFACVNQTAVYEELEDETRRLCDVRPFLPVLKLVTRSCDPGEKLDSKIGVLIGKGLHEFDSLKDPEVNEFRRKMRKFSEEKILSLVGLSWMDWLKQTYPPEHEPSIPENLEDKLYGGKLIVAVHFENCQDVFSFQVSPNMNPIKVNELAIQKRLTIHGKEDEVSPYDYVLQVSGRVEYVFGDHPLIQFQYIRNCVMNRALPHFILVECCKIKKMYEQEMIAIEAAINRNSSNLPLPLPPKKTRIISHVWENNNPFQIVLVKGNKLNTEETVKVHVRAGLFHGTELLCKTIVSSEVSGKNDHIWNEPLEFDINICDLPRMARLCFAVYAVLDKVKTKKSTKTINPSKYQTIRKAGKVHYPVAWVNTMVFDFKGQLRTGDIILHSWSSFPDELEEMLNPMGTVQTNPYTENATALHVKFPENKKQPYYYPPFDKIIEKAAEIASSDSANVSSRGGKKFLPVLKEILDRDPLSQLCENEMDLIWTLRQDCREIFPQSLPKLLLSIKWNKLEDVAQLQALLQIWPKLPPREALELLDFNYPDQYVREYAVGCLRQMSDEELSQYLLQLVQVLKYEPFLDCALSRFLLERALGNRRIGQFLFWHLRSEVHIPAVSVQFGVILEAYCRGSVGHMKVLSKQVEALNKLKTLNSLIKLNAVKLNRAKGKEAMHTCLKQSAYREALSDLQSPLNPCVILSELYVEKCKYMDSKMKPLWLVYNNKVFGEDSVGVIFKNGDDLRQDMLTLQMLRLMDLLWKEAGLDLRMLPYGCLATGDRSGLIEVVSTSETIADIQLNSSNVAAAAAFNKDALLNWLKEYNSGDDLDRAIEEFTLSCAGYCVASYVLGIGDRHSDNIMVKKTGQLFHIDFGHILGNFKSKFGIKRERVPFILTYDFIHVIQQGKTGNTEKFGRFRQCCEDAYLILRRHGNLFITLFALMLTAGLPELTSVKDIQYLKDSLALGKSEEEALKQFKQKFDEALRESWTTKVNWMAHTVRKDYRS
T2 sequence (P27986 322-600 partner limits assumed): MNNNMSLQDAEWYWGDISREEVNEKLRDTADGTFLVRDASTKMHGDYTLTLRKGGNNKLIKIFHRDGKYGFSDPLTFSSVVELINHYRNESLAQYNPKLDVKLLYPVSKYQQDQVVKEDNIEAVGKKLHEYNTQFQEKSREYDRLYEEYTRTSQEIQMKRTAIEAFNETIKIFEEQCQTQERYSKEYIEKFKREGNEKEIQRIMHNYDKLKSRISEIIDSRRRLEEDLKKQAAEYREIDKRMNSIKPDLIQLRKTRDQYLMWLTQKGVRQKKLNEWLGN
Source text: (§1) cDNA clones of PIK3CA, PIK3CB and PIK3CG were obtained from Origene (Rockville, MD, USA). PIK3CD was generously provided by Novartis Pharmaceuticals. The cDNA clones were sub-cloned into pFastBac His-Tag (Invitrogen, Carlsbad, CA, USA) and baculovirus clones were generated by the Bac-to-Bac expression system (Invitrogen). p110α, p110β and p110δ were co-expressed in Sf9 insect cells (Invitrogen) with a nSH2-iSH2 fragment of the regulatory subunit p85 comprising AA residues 322 to 600 [4]. p110γ was expressed without a regulatory subunit. Sf9 cells were lysed in a buffer containing 50 mM sodium phosphate, pH 8.0, 400 mM NaCl, 5% glycerol, 1% Triton X-100, 10 mM 2-mercaptoethanol, 1 mM orthovanadate, 10 mM imidazole, and sonicated on ice for 1 minute. Proteins were purified by adding Ni-NTA Superflow beads (Qiagen, Valencia, CA, USA) to the lysate and subsequent rolling for 30 min at 4°C. Beads were washed twice with 50 mM phosphate buffer, pH 8.0, 0.5 M NaCl, 50 mM Imidazole, 2 mM DTT and eluted in the same buffer but with 200 mM imidazole. Purified PI3K's were mixed 1:1 with glycerol and stored at -20°C.
(§2) J-series inhibitors were dissolved, serial diluted in DMSO and deposited into 96 well plates at a final DMSO concentration of 1%. We used a novel assay to determine their potency and selectivity. In brief, micelles of 2.5 μg L-a-Phosphatidylinositol and 2.5 μg 1,2-Diacyl-sn-glycero-3-phospho-L-serine were formed by sonication, mixed with the individual PI3K isoforms and added to the drug dilutions in a reaction buffer containing 10 mM HEPES, 25 mM NaCl, 0.125 μg/μl BSA, and 2 mM BME (final concentrations). Reactions were timed after the addition of 10 μM ATP with 40 μCi/ml γ-32P-ATP (PerkinElmer, Waltham, MA, USA) and 2 mM MgCl2 (all final concentrations). The reactions were terminated after two hours by the addition of 2 N HCl and the lipids extracted with 1:1 MetOH/Chloroform. Radio-labeled phosphatidyl-inositol-3-phosphate in the extracted organic fraction was quantified after the addition of Microscint O (PerkinElmer) using a TopCount 96 well plate scintillation counter (PerkinElmer). IC50 concentrations and inhibition curves were calculated using Prism 5 (GraphPad Software, La Jolla, CA).

[3] = biological target: T3, p110γ (Homo sapiens, UniProt P48736); test: Biochemical PI3K inhibition assay, p110γ; conditions: 10 μM ATP, two hours; no regulatory subunit
T3 construct: His-tag; made in house; host or cells: Sf9 insect cells (baculovirus)
T3 sequence (P48736 whole entry): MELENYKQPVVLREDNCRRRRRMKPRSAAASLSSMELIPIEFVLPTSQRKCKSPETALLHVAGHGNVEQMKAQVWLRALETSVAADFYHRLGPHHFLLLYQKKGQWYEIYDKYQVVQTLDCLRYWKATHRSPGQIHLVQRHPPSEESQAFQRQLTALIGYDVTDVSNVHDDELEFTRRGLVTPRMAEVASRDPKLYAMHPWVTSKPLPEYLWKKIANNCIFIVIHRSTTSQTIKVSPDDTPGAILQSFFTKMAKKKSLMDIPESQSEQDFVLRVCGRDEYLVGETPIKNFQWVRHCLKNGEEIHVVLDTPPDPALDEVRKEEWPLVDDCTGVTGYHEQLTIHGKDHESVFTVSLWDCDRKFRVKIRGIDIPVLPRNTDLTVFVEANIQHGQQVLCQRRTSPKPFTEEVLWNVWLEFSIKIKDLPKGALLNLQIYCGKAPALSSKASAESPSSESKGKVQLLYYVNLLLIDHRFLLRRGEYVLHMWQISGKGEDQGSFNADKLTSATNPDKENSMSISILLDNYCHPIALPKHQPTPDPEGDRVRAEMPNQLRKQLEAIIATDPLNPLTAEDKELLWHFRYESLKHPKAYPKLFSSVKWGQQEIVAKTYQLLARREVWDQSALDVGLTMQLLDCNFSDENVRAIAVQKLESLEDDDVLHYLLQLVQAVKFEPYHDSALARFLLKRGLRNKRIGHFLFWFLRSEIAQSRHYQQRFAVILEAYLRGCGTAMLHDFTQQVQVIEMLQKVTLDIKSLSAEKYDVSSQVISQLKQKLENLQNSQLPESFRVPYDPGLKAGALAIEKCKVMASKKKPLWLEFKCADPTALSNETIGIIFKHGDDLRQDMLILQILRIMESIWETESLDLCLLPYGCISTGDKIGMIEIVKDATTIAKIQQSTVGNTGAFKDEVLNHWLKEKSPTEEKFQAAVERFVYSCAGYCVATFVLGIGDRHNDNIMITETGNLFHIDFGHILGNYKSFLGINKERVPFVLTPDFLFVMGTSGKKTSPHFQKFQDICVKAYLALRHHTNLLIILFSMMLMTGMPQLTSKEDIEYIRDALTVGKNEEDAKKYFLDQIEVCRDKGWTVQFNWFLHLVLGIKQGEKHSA
Source text: as §1, §2

[4] = biological target: T4, p110δ (Homo sapiens, UniProt O00329); test: Biochemical PI3K inhibition assay, p110δ; conditions: 10 μM ATP, two hours
T4 construct: His-tag; made in house; host or cells: Sf9 insect cells (baculovirus)
T4 sequence (O00329 whole entry): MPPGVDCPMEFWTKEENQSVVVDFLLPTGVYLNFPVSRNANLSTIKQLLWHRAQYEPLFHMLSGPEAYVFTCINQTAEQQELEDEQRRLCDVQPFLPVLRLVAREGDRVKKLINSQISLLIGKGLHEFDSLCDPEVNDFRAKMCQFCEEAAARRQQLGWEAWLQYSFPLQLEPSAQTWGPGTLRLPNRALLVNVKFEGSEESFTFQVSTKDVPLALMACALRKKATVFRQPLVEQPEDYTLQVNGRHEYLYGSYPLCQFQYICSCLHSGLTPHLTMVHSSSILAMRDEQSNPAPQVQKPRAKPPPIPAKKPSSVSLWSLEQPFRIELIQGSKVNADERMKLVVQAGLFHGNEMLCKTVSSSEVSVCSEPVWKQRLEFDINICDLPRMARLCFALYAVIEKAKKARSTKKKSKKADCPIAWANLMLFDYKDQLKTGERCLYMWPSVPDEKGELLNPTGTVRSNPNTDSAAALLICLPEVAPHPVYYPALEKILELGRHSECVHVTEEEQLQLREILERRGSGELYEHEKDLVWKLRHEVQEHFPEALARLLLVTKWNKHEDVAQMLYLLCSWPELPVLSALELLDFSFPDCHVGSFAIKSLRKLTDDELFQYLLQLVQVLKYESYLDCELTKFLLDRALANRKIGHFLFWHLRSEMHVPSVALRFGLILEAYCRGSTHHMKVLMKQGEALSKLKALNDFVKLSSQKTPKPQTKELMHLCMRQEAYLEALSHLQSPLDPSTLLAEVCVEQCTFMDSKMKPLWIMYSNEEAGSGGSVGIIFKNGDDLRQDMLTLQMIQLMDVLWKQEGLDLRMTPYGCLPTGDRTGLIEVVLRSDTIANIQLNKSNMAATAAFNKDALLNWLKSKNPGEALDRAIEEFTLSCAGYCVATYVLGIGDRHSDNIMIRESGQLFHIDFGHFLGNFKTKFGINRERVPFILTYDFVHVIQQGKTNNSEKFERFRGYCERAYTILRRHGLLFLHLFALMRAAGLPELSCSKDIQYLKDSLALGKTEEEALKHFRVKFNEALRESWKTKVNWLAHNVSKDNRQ
T4 sequence (P27986 322-600 partner limits assumed): as the sequence (P27986 322-600 partner limits assumed) above
Source text: as §1, §2

[5] = test system: subcutaneous HCT116 xenograft tumors; test: Xenograft tumor model; assay type: in vivo; conditions: nude mice, 150 mg/kg IP daily for three weeks
Procedure: (§3) Tumor xenografts were established by injecting 5x10^6 HCT116 cells subcutaneously into the right flanks of female nude mice. Tumor volume was measured twice weekly using electronic calipers and calculated as length x width^2 x 0.5. After tumors reached an average volume of 50 mm^3, animals were treated daily with drugs at 150 mg/kg via IP injection for three weeks. Tumor phospho-Akt levels were determined following harvest on the last day of the study. Xenografts were excised, snap frozen in liquid nitrogen and pulverized with a pestle. Homogenized tissue was re-suspended in lysis buffer (Cell Signaling Technology) and protein contents normalized by Bradford assay (Bio-Rad Laboratories, Hercules, CA, USA). Western blots were performed as described above.

[6] = test system: phosphorylation of Akt1 and Akt2 in HCT116 cells; test: P-Akt western analysis in cells; assay type: cell-based, human; conditions: 6 hours, concentrations that inhibited cell growth
Procedure: Phopspho-Akt levels were assayed in HCT116 cells. 1x10^6 cells/well were seeded in six-well plates and serum starved for 2 hours in McCoy's 5A medium. Drugs were pre-mixed with complete medium containing 10% FBS and incubated with the cells for 6 hours. Cells were lysed on ice with 100 mM Tris-HCl, pH 7.0, 10% 2-mercaptoethanol, 4% SDS, 20% glycerol, 0.05% Bromophenol blue, 20 μl 1 mM NaF, 1 mM Na3VO4, and Complete Protease Inhibitor Cocktail Tablet (Roche, Nutley, NJ, USA) without EDTA and sonicated for 30 seconds. Phospho-Akt was assayed with Phospho-Akt (Ser473) antibody (#9271, Cell Signaling Technology, Danvers, MA, USA). Subsequently the membrane was stripped and incubated with Akt1 (D-17) antibody (sc-7126, Santa Cruz Biotechnology,Santa Cruz, CA, USA)) for loading control.

[7] = test system: P-Akt in HCT116 xenografts; test: Intra-tumor P-Akt levels in xenografts; assay type: in vivo, nude mice; conditions: post IP injection
Procedure: as §3

[8] = test system: Intraspleenic-injected HCT116 liver and lung metastases; test: Intraspleenic tumor model (metastasis); assay type: in vivo, mice; conditions: 150 mg/kg IP daily, three weeks
Procedure: Intraspleenic-injected HCT116 liver and lung metastases in NOD.Cg-Prkdcscid Il2rgtm1Wjl/SzJ mice (Jackson Laboratory, Bar Harbor, ME, USA) were generated as described in Erikson et. al.. J-series compounds were solubilized in 1:1 DMSO/Cremophor EL (Sigma-Aldrich) and diluted 2.3-fold in water to a final concentration of 7.5 mg/ml. 400 μl of this formulation (150 mg/kg) was injected intraperitoneally (IP) once a day for three weeks, beginning the third day post-surgery. Mice were sacrificed after the treatment and the liver, lungs, and spleen sampled. DNA was extracted from organs with the DNeasy Blood & Tissue Kit (Qiagen). The qPCR assay used for quantification of human DNA in mouse organs has been described. All mouse protocols were designed in accordance with the NIH Guide for the Care and Use of Laboratory Animals and approved by the Institutional Animal Care and Use Committee.

T1 sequence (P42336 whole entry): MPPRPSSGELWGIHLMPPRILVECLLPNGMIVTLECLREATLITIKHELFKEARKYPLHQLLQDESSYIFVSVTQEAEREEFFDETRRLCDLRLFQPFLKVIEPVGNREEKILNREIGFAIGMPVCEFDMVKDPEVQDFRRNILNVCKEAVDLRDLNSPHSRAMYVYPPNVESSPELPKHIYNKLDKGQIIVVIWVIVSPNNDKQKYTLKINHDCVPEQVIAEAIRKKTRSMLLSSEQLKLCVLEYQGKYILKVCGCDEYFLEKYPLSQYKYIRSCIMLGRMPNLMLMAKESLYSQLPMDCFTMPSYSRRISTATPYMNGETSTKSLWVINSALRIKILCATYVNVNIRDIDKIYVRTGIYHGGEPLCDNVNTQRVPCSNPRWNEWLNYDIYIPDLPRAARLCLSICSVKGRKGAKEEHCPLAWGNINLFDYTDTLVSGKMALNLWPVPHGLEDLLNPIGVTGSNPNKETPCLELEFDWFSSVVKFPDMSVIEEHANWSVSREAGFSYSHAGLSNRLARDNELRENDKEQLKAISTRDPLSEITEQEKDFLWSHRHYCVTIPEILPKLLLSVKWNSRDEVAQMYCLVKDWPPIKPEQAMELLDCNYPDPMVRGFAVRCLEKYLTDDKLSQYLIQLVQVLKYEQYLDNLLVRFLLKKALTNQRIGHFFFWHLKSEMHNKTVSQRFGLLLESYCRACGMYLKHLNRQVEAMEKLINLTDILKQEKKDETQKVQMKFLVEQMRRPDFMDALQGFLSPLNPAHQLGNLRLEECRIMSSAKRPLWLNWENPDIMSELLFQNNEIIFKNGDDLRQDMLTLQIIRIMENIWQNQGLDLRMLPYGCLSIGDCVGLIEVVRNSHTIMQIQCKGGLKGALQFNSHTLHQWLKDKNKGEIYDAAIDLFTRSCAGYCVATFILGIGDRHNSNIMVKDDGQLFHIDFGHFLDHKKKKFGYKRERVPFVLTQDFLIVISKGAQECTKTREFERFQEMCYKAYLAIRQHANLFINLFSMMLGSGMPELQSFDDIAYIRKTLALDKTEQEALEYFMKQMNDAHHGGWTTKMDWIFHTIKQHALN
T1 sequence (P27986 322-600 partner limits assumed): as the sequence (P27986 322-600 partner limits assumed) above

Compound: CCN(/N=C/c1cnc2ccc(Br)cn12)S(=O)(=O)c1cc([N+](=O)[O-])ccc1C [J32]
- IC50 [1]: 15 nM
- increase of selectivity against the other three isoforms ([1]; J32 versus J27): up to 8 fold
- effect of substitution on PI3Kα potency/selectivity (in words) ([1]; SAR discussion): potency for PI3Kα was retained
- IC50 [2]: 1200 nM
- IC50 [3]: 620 nM
- IC50 [4]: 1400 nM
- anti-tumor activity against subcutaneous HCT116 xenograft tumors [5]: Only a minor anti-tumor activity

Compound: CCN(/N=C/c1cnc2ccc(Br)cn12)S(=O)(=O)c1cc([N+](=O)[O-])c(N)cc1C [J124-I]
- IC50 [1]: 2 nM
- increase of inhibitory activity for PI3Kα ([1]; compared to J32): 7.5 fold
- IC50 [2]: 46 nM
- IC50 [3]: 73 nM
- IC50 [4]: 26 nM
- phosphorylation of Akt1 and Akt2 (western blot) [6]: inhibitory effect
- anti-tumor activity against subcutaneous HCT116 xenograft tumors [5]: Only a minor anti-tumor activity
- intra-tumor P-Akt levels [7]: reduced up to 3 hours

Compound: CCN(/N=C/c1cnc2ccc(Br)cn12)S(=O)(=O)c1cc([N+](=O)[O-])c(N)cc1Cl [J128]
- IC50 [1]: 4 nM
- IC50 [2]: 130 nM
- IC50 [3]: 250 nM
- IC50 [4]: 110 nM
- metastatic lesions in the lungs [8]: no lesions
- metastatic foci in the liver (histopathology) ([8]; compared to vehicle): few, if any, metastatic foci
- reduction in primary tumor burden in the spleen (real-time PCR) ([8]; compared to vehicle): ~ 50%
- reduction of metastatic liver burden (real-time PCR) ([8]; compared to vehicle): 9 fold
